Experimental data published in PubChem BioAssay AID1918942 (Molecular Pharmacology Branch, DTP, NCI, 2023).

System: 743489-274-T-PDC complex spheroid viability
Assay: Anticancer human tumor 743489-274-T-PDC patient-derived renal cell carcinoma cell line growth inhibition
Settings: for IC50: curve of first compound; for viability, T/C: stronger effect = lower value
In short: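 Drug combinations with the LSD1 inhibitor iadademstat tested on tumor cells co-cultured as spheroids with endothelial cells and mesenchymal stem cells. Concentrations descended in half-log increments from clinical Cmax or 10 microM.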

[1] = second compound 0.1 µM, first compound 0.000316 µM
[2] = second compound 0.1 µM, first compound 0.001 µM
[3] = second compound 0.1 µM, first compound 0.00316 µM
[4] = second compound 0.1 µM, first compound 0.01 µM
[5] = second compound 0.1 µM, first compound 0.0316 µM
[6] = second compound 0.1 µM, first compound 0.1 µM
[7] = second compound 0.316 µM, first compound 0.000316 µM
[8] = second compound 0.316 µM, first compound 0.001 µM
[9] = second compound 0.316 µM, first compound 0.00316 µM
[10] = second compound 0.316 µM, first compound 0.01 µM
[11] = second compound 0.316 µM, first compound 0.0316 µM
[12] = second compound 0.316 µM, first compound 0.1 µM
[13] = second compound 1 µM, first compound 0.000316 µM
[14] = second compound 1 µM, first compound 0.001 µM
[15] = second compound 1 µM, first compound 0.00316 µM
[16] = second compound 1 µM, first compound 0.01 µM
[17] = second compound 1 µM, first compound 0.0316 µM
[18] = second compound 1 µM, first compound 0.1 µM
[19] = second compound 3.16 µM, first compound 0.000316 µM
[20] = second compound 3.16 µM, first compound 0.001 µM
[21] = second compound 3.16 µM, first compound 0.00316 µM
[22] = second compound 3.16 µM, first compound 0.01 µM
[23] = second compound 3.16 µM, first compound 0.0316 µM
[24] = second compound 3.16 µM, first compound 0.1 µM
[25] = second compound 10 µM, first compound 0.000316 µM
[26] = second compound 10 µM, first compound 0.001 µM
[27] = second compound 10 µM, first compound 0.00316 µM
[28] = second compound 10 µM, first compound 0.01 µM
[29] = second compound 10 µM, first compound 0.0316 µM
[30] = second compound 10 µM, first compound 0.1 µM
[31] = second compound 0.1 µM, first compound 0.00949 µM
[32] = second compound 0.1 µM, first compound 0.03 µM
[33] = second compound 0.1 µM, first compound 0.0949 µM
[34] = second compound 0.1 µM, first compound 0.3 µM
[35] = second compound 0.1 µM, first compound 0.949 µM
[36] = second compound 0.1 µM, first compound 3 µM
[37] = second compound 0.316 µM, first compound 0.00949 µM
[38] = second compound 0.316 µM, first compound 0.03 µM
[39] = second compound 0.316 µM, first compound 0.0949 µM
[40] = second compound 0.316 µM, first compound 0.3 µM
[41] = second compound 0.316 µM, first compound 0.949 µM
[42] = second compound 0.316 µM, first compound 3 µM
[43] = second compound 1 µM, first compound 0.00949 µM
[44] = second compound 1 µM, first compound 0.03 µM
[45] = second compound 1 µM, first compound 0.0949 µM
[46] = second compound 1 µM, first compound 0.3 µM
[47] = second compound 1 µM, first compound 0.949 µM
[48] = second compound 1 µM, first compound 3 µM
[49] = second compound 3.16 µM, first compound 0.00949 µM
[50] = second compound 3.16 µM, first compound 0.03 µM
[51] = second compound 3.16 µM, first compound 0.0949 µM
[52] = second compound 3.16 µM, first compound 0.3 µM
[53] = second compound 3.16 µM, first compound 0.949 µM
[54] = second compound 3.16 µM, first compound 3 µM
[55] = second compound 10 µM, first compound 0.00949 µM
[56] = second compound 10 µM, first compound 0.03 µM
[57] = second compound 10 µM, first compound 0.0949 µM
[58] = second compound 10 µM, first compound 0.3 µM
[59] = second compound 10 µM, first compound 0.949 µM
[60] = second compound 10 µM, first compound 3 µM
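Note: spheroids exposed to compounds for 7 days before readout.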
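Throughout, for viability, T/C: 100% = DMSO vehicle control wells.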

CC(C)CC(NC(=O)C(Cc1ccccc1)NC(=O)c1cnccn1)B(O)O (stereo not given) + NC1CCC(NC2CC2c2ccccc2)CC1
IC50 (second compound 0.1 µM): 0.00765 µM
IC50 (second compound 0.316 µM): 0.0079 µM
IC50 (second compound 1 µM): 0.00738 µM
IC50 (second compound 3.16 µM): 0.00858 µM
IC50 (second compound 10 µM): 0.00822 µM
viability, T/C [1]: 115%
viability, T/C [2]: 100%
viability, T/C [3]: 121%
viability, T/C [4]: 33.7%
viability, T/C [5]: 29.6%
viability, T/C [6]: 30.3%
viability, T/C [7]: 119%
viability, T/C [8]: 109%
viability, T/C [9]: 115%
viability, T/C [10]: 33.4%
viability, T/C [11]: 19.1%
viability, T/C [12]: 26.7%
viability, T/C [13]: 100%
viability, T/C [14]: 108%
viability, T/C [15]: 113%
viability, T/C [16]: 36.8%
viability, T/C [17]: 23.7%
viability, T/C [18]: 28.1%
viability, T/C [19]: 122%
viability, T/C [20]: 103%
viability, T/C [21]: 113%
viability, T/C [22]: 40.3%
viability, T/C [23]: 22.3%
viability, T/C [24]: 38.3%
viability, T/C [25]: 117%
viability, T/C [26]: 119%
viability, T/C [27]: 123%
viability, T/C [28]: 35.8%
viability, T/C [29]: 22.1%
viability, T/C [30]: 35.5%

CC(C)CC(NC(=O)CNC(=O)c1cc(Cl)ccc1Cl)B1OC(=O)CC(CC(=O)O)(C(=O)O)O1 (stereo not given) + NC1CCC(NC2CC2c2ccccc2)CC1
IC50 (second compound 0.1 µM): > 0.1 µM
IC50 (second compound 0.316 µM): 0.0925 µM
IC50 (second compound 1 µM): > 0.1 µM
IC50 (second compound 3.16 µM): > 0.1 µM
IC50 (second compound 10 µM): 0.0865 µM
viability, T/C [1]: 95.9%
viability, T/C [2]: 105%
viability, T/C [3]: 109%
viability, T/C [4]: 80.4%
viability, T/C [5]: 72.6%
viability, T/C [6]: 60.7%
viability, T/C [7]: 119%
viability, T/C [8]: 123%
viability, T/C [9]: 108%
viability, T/C [10]: 80.5%
viability, T/C [11]: 79.8%
viability, T/C [12]: 46.6%
viability, T/C [13]: 120%
viability, T/C [14]: 120%
viability, T/C [15]: 108%
viability, T/C [16]: 98.1%
viability, T/C [17]: 78.4%
viability, T/C [18]: 51.9%
viability, T/C [19]: 104%
viability, T/C [20]: 113%
viability, T/C [21]: 105%
viability, T/C [22]: 89.1%
viability, T/C [23]: 92.6%
viability, T/C [24]: 48.9%
viability, T/C [25]: 134%
viability, T/C [26]: 107%
viability, T/C [27]: 100%
viability, T/C [28]: 100%
viability, T/C [29]: 76.6%
viability, T/C [30]: 43.9%

COc1cc(Nc2ncc3c(n2)-c2ccc(Cl)cc2C(c2c(F)cccc2OC)=NC3)ccc1C(=O)O + NC1CCC(NC2CC2c2ccccc2)CC1
IC50 (second compound 0.1 µM): > 1 µM
IC50 (second compound 0.316 µM): > 1 µM
IC50 (second compound 1 µM): > 1 µM
IC50 (second compound 3.16 µM): > 1 µM
IC50 (second compound 10 µM): > 1 µM
viability, T/C [3]: 104%
viability, T/C [4]: 104%
viability, T/C [5]: 92.6%
viability, T/C [6]: 86.2%
viability, T/C (second compound 0.1 µM, first compound 0.316 µM): 90.3%
viability, T/C (second compound 0.1 µM, first compound 1 µM): 82.2%
viability, T/C [9]: 100%
viability, T/C [10]: 96%
viability, T/C [11]: 103%
viability, T/C [12]: 82.5%
viability, T/C (second compound 0.316 µM, first compound 0.316 µM): 89.7%
viability, T/C (second compound 0.316 µM, first compound 1 µM): 85%
viability, T/C [15]: 104%
viability, T/C [16]: 105%
viability, T/C [17]: 88.8%
viability, T/C [18]: 86.6%
viability, T/C (second compound 1 µM, first compound 0.316 µM): 92.5%
viability, T/C (second compound 1 µM, first compound 1 µM): 97.2%
viability, T/C [21]: 92.6%
viability, T/C [22]: 100%
viability, T/C [23]: 100%
viability, T/C [24]: 79.4%
viability, T/C (second compound 3.16 µM, first compound 0.316 µM): 104%
viability, T/C (second compound 3.16 µM, first compound 1 µM): 97.2%
viability, T/C [27]: 102%
viability, T/C [28]: 111%
viability, T/C [29]: 105%
viability, T/C [30]: 99.2%
viability, T/C (second compound 10 µM, first compound 0.316 µM): 102%
viability, T/C (second compound 10 µM, first compound 1 µM): 93.8%

Cn1ncnc1C1c2n[nH]c(=O)c3cc(F)cc(c23)NC1c1ccc(F)cc1 (stereo not given) + NC1CCC(NC2CC2c2ccccc2)CC1
IC50 (second compound 0.1 µM): > 0.1 µM
IC50 (second compound 0.316 µM): > 0.1 µM
IC50 (second compound 1 µM): > 0.1 µM
IC50 (second compound 3.16 µM): > 0.1 µM
IC50 (second compound 10 µM): > 0.1 µM
viability, T/C [1]: 121%
viability, T/C [2]: 99.1%
viability, T/C [3]: 100%
viability, T/C [4]: 103%
viability, T/C [5]: 101%
viability, T/C [6]: 86.2%
viability, T/C [7]: 105%
viability, T/C [8]: 102%
viability, T/C [9]: 93.6%
viability, T/C [10]: 115%
viability, T/C [11]: 92%
viability, T/C [12]: 103%
viability, T/C [13]: 104%
viability, T/C [14]: 108%
viability, T/C [15]: 90.2%
viability, T/C [16]: 81.7%
viability, T/C [17]: 90.2%
viability, T/C [18]: 84%
viability, T/C [19]: 101%
viability, T/C [20]: 101%
viability, T/C [21]: 101%
viability, T/C [22]: 103%
viability, T/C [23]: 101%
viability, T/C [24]: 94%
viability, T/C [25]: 111%
viability, T/C [26]: 98%
viability, T/C [27]: 91.7%
viability, T/C [28]: 103%
viability, T/C [29]: 90.4%
viability, T/C [30]: 97.7%

NS(=O)(=O)OCC1CC(n2ccc3c(NC4CCc5ccccc54)ncnc32)CC1O (stereo not given) + NC1CCC(NC2CC2c2ccccc2)CC1
IC50 (second compound 0.1 µM): > 3 µM
IC50 (second compound 0.316 µM): > 3 µM
IC50 (second compound 1 µM): > 3 µM
IC50 (second compound 3.16 µM): > 3 µM
IC50 (second compound 10 µM): > 3 µM
viability, T/C [31]: 98.6%
viability, T/C [32]: 103%
viability, T/C [33]: 132%
viability, T/C [34]: 133%
viability, T/C [35]: 135%
viability, T/C [36]: 144%
viability, T/C [37]: 92.8%
viability, T/C [38]: 103%
viability, T/C [39]: 121%
viability, T/C [40]: 135%
viability, T/C [41]: 146%
viability, T/C [42]: 147%
viability, T/C [43]: 114%
viability, T/C [44]: 108%
viability, T/C [45]: 113%
viability, T/C [46]: 142%
viability, T/C [47]: 135%
viability, T/C [48]: 121%
viability, T/C [49]: 98.5%
viability, T/C [50]: 107%
viability, T/C [51]: 128%
viability, T/C [52]: 141%
viability, T/C [53]: 151%
viability, T/C [54]: 151%
viability, T/C [55]: 90.1%
viability, T/C [56]: 105%
viability, T/C [57]: 132%
viability, T/C [58]: 135%
viability, T/C [59]: 129%
viability, T/C [60]: 102%

O=C(C=Cc1cccc(S(=O)(=O)Nc2ccccc2)c1)NO + NC1CCC(NC2CC2c2ccccc2)CC1
IC50 (second compound 0.1 µM): > 3 µM
IC50 (second compound 0.316 µM): 2.84 µM
IC50 (second compound 1 µM): 2.23 µM
IC50 (second compound 3.16 µM): > 3 µM
IC50 (second compound 10 µM): 1.91 µM
viability, T/C [31]: 103%
viability, T/C [32]: 94.4%
viability, T/C [33]: 84.1%
viability, T/C [34]: 67.9%
viability, T/C [35]: 81.7%
viability, T/C [36]: 62.1%
viability, T/C [37]: 102%
viability, T/C [38]: 96.5%
viability, T/C [39]: 87.8%
viability, T/C [40]: 80.9%
viability, T/C [41]: 69.3%
viability, T/C [42]: 47.4%
viability, T/C [43]: 100%
viability, T/C [44]: 107%
viability, T/C [45]: 98.5%
viability, T/C [46]: 78.7%
viability, T/C [47]: 78.5%
viability, T/C [48]: 41.2%
viability, T/C [49]: 108%
viability, T/C [50]: 105%
viability, T/C [51]: 95.5%
viability, T/C [52]: 78.2%
viability, T/C [53]: 69.2%
viability, T/C [54]: 51.9%
viability, T/C [55]: 109%
viability, T/C [56]: 96.2%
viability, T/C [57]: 106%
viability, T/C [58]: 74.9%
viability, T/C [59]: 65.6%
viability, T/C [60]: 41.4%
